These are literature values, as cited in patent US20120129696A1, “METHOD FOR INCREASING THE LEVEL OF FREE AMINO ACIDS IN STORAGE TISSUES OF PERENNIAL PLANTS” (priority 2009, published 2012).

The subject of the series is wheat plants.

On to `COC(=O)N(OC)c1ccccc1COc1ccn(-c2ccc(Cl)cc2)n1` [pyraclostrobin], for which the “relative content of protein and C/N-ratios, control compared to treated plants” value is reported as “neither the relative content of protein nor C/N-ratios were different”. The “persistence of enhancement of nitrate reduction” value (after a single application at rates normally used for fungal control at the field site) is reported as 3 nights. Further, the “nitrite and ammonia in the leaves following application” value (rates normally used for fungal control at the field site) is recorded as “accumulated”.
